Reference: article PMC11855827, “High-Throughput Screening of Five Compound Libraries for Anthelmintic Activity and Toxicity Leads to the Discovery of Two Flavonoid Compounds” (International Journal of Molecular Sciences, 2025)
“And” between values parts separate entries of the source, which are not always exact repeats. Identical values can stand only once. Like-named read-outs stand apart in the source and are kept apart here.

Test system: C. elegans
[1] = Table S2, C. elegans SS assay, 110 μM, 0 h, averages of 4 data points
[2] = Table S2, C. elegans SS assay, 110 μM, 24 h, averages of 4 data points

| Compound | Percentage of motility inhibition 0 h [1] [%] | Percentage of motility inhibition 24 h [2] | Percentage of motility inhibition 0 h (110 µM) [%] | Percentage of motility inhibition 24 h (110 µM) [%] |
| --- | --- | --- | --- | --- |
| C[C@H](CC[C@@H](O[C@@H]1O[C@H](CO)[C@@H](O)[C@H](O)[C@H]1O)C(C)(C)O)[C@H]1CC[C@@]2(C)[C@@H]3CC=C4[C@@H](CC[C@H](O[C@@H]5O[C@H](CO)[C@@H](O)[C@H](O)[C@H]5O)C4(C)C)[C@]3(C)[C@H](O)C[C@]12C [Mogroside IIe] | 0 | 7% |  |  |
| CO/N=C(\C(=O)N[C@@H]1C(=O)N2C(C(=O)OCOC(=O)C(C)(C)C)=C(/C=C\c3scnc3C)CS[C@H]12)c1csc(N)n1 [Cefditoren (Pivoxil)] | 36 | 1% |  |  |
| Inulin | 4 | 17% |  |  |
| COC(=O)C1=CO[C@@H](O)[C@@H]2[C@@H](C)[C@@H](O)C[C@H]12 [Loganetin] | 0 | 2% |  |  |
| Dictamine |  |  | 0 | 20 |
| O=c1c(O[C@@H]2O[C@H](CO)[C@H](O)[C@H](O)[C@H]2O[C@@H]2O[C@H](CO)[C@@H](O)[C@H](O)[C@H]2O)c(-c2ccc(O)cc2)oc2cc(O)cc(O)c12 [Panasenoside] | 6 | 31% |  |  |
| COc1ccc(-c2cc(=O)c3c(O)cc(O[C@@H]4O[C@H](CO[C@@H]5O[C@@H](C)[C@H](O)[C@@H](O)[C@H]5O)[C@@H](O)[C@H](O)[C@H]4O)cc3o2)cc1 [Linarin] | 15 | 23% |  |  |
| C/C=C/C=C/C=C/CC/C=C/C(=O)NCC(C)(C)O [Hydroxy‐β‐sanshool] | 46 | 10% |  |  |
| COc1cc2c(cc1O)C[C@H]1c3cc(O)c(OC)cc3CC[N+]1(C)C2.[Cl-] (stereo partly shown) [Phellodendrine (chloride)] | 25 | 7% |  |  |
| COc1cc(OC)c2c(=O)cc(-c3ccc(OC)c(OC)c3)oc2c1 [5,7,3',4'‐Tetramethoxyflavone] | 0 | 0% |  |  |
| C1CNCCN1.O=C(O)CCCCC(=O)O [Piperazine adipate] | 10 | 13% |  |  |
| COc1cc2c(cc1O)C[C@@H]1NCCc3cc(OC)c(O)c-2c31 [Norisoboldine] | 0 | 0% |  |  |
| (±)-Huperzine A | 0 | 16% |  |  |
| COc1ccc(CCC(=O)c2ccc(O)cc2)c(OC)c1 [Loureirin A] | 11 | 0% |  |  |
| (±)‐10‐Hydroxycamptothecin | 0 | 0% |  |  |
| CC1(C)C[C@@H](O)[C@]2(C)CC[C@]3(C)C(=CC[C@@H]4[C@@]5(C)CC[C@H](O[C@@H]6O[C@H](C(=O)O)[C@@H](O)[C@H](O)[C@H]6O[C@@H]6O[C@H](CO)[C@H](O)[C@H](O)[C@H]6O[C@@H]6O[C@H](CO)[C@@H](O)[C@H](O)[C@H]6O)[C@](C)(CO)[C@@H]5CC[C@]43C)[C@@H]2C1 [Soyasaponin Ba] | 0 | 25% |  |  |
| COc1cc2c(cc1O)-c1c(OC)c(O)cc3c1[C@H](C2)NCC3 [Laetanine] | 0 | 0% |  |  |
| Cl.Cl.NCCc1c[nH]cn1 [Histamine (dihydrochloride)] | 0 | 3% |  |  |
| COC1=C[C@@H]2[C@@H]3Cc4ccc(OC)c(O)c4[C@]2(CCN3C)CC1=O [Sinomenine] |  | 3% and 0% |  |  |
